The subject of the assay is NCI-H196 complex spheroid growth, percent test/control. Kind of assay: Anticancer human tumor NCI-H196 cell line growth inhibition [AhR].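 On all read-outs here: seven days of drug exposure starting three days after plating.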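 On viability, T/C: 100% = DMSO vehicle control wells.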 To be noted: for viability, T/C: stronger effect = lower value; for IC50: curve of compound. From the text:
Multicellular complex tumor spheroid response to aryl hydrocarbon receptor antagonists in combination with a variety of drugs and investigational agents in selected tumor cell lines
The current study was undertaken to assess response to aryl hydrocarbon receptor antagonists in combination with standard-of-care drugs and investigational agents in solid tumor complex spheroid models. Complex spheroids include a stromal component modeled by human endothelial cells (HUVEC) and fibroblasts modeled by human mesenchymal stem cells (MSCs). The concentration ranges selected for each drug and investigational agent were based upon clinically achievable concentrations if the clinical Cmax of the agent was known.
Compounds. The drugs and investigational agents: BAY 2416964 (NSC825713), GNF351 (NSC835774), CH-223191 (NSC835775), CPI-455 (NSC825282), aza-TdCyd (NSC777586), decitabine (NSC127716), belinostat (NSC758774), entinostat (NSC756642), pevonedistat (NSC761192), tazemetostat (NSC777109), talazoparib (NSC765396), olaparib (NSC753686), selinexor (NSC780203), nedisertib (M3814, NSC802822), bortezomib (NSC756655), venetoclax (NSC766270), doxorubicin (NSC123127), elimusertib (BAY189344, NSC800525), ceralasertib (AZD6738, NSC777638), TAK-243 (NSC785004), alisertib (NSC759677), etoposide (NSC141540), topotecan (NSC609699), eribulin (NSC707389), gemcitabine (NSC613327), carboplatin (NSC241240), cisplatin (NSC119875), and SN-38 (NSC673596) were obtained from the National Cancer Institute (NCI) Developmental Therapeutics Program Chemical Repository (32). The FDA-approved anticancer drug set is available from the Developmental Therapeutics Program at https://dtp.cancer.gov/organization/dscb/obtaining/available plates.htm. […] The stock solutions were prepared in dimethyl sulfoxide (DMSO, Sigma-Aldrich, St. Louis, MO, cat. D2650), except for the platinum compounds which were prepared in saline (Quality Biological, Gaithersburg, MD, cat. 114-055-101), at 800-fold the tested concentration and stored at -70 degrees C prior to their use. All drugs and investigational agents were tested over a range starting from a high concentration at or near the clinical Cmax and decreasing in half-log increments. If the clinical Cmax for an agent had not been determined, the highest concentration tested was 10 microM (Table 1).
Cell Culture. All cells were maintained in an incubator at 37 degrees C and 5% CO2 with 95% humidity. The PDC lines were cultured according to standard operating procedures established by the NCI PDMR (https://pdmr.cancer.gov). Briefly, all PDCs were thawed and cultured in Matrigel-coated flasks prepared with a working solution of 1X Ham's F-12 nutrient mix, without supplementation (Invitrogen, Waltham, MA, cat. 11765054), 100 U/mL penicillin-streptomycin (Invitrogen, cat. 15140122), and 2.5% Matrigel (Corning Inc., Corning, NY, cat. 354248) for the first three passages. All PDCs were cultured in complete DMEM/F-12 media containing advanced DMEM/F-12 (Invitrogen, cat. 12634028), 4.9% defined fetal bovine serum, heat inactivated (HyClone Laboratories Inc., Logan, UT, cat. SH30070.03HI), 389 ng/mL hydrocortisone (Sigma-Aldrich, cat. H4001), 9.7 ng/mL human EGF recombinant protein (Invitrogen, cat. PHG0313), 23.4 microg/mL adenine (Sigma-Aldrich, cat. A2786), 97.3 U/mL penicillin-streptomycin (Invitrogen, cat. 15140122), 1.9 mM L-glutamine (Invitrogen, cat. 25030081), and 9.7 microM Y-27632 dihydrochloride (Tocris Bioscience, Bristol, United Kingdom, cat. 1254). The PDCs were cultured in complete DMEM/F12 media without 10 microM Y-27632 dihydrochloride for at least two passages prior to the screen. The established cell lines NCI-H1341 and […] were cultured in DMEM/F-12, HEPES (Invitrogen, cat. 11330032), 5% defined fetal bovine serum (HyClone Laboratories Inc., cat. SH30070.03), ITS premix universal culture supplement [insulin (5 microg/mL), transferrin (5 microg/mL), and selenious acid (5 ng/mL)] […]

Each structure is given as a SMILES string. Where “and” joins values, the source holds several entries; their conditions need not be identical. Identical values can stand only once. Bounds are passed on as bounds.

For `CC(C)CC(NC(=O)C(Cc1ccccc1)NC(=O)c1cnccn1)B(O)O` (stereo not given), the half-inhibitory concentration (IC50) is 7.32 nM and 14.8 nM and 7.37 nM. Moreover, the viability, T/C (compound 0.000949 µM) was 98.7% and 106% and 105%. In addition, for the setting “compound 0.003 µM”, the viability, T/C was 96.1% and 99.1% and 101%. The viability, T/C (compound 0.00949 µM) was 36.6% and 76.3% and 35.7%. The viability, T/C (compound 0.03 µM) was 2.1% and 7.38% and 4.57%. For the setting “compound 0.0949 µM”, the viability, T/C was 1.67% and 5.37% and 2.7%. Further, the viability, T/C (compound 0.3 µM) is 2.25% and 4.21% and 2%.

Consider `CC1COCCN1c1cc(-c2ccnn2C)c2ccnc(-c3ccn[nH]3)c2n1` (stereo not given), for which the IC50 was greater than 1000 nM. In addition, the viability, T/C (compound 0.00316 µM) was 88.9% and 98.2% and 94.9%. In addition, under “compound 0.01 µM”, the viability, T/C was 96.8% and 97.7% and 89.9%. Where the note is “compound 0.0316 µM”, the viability, T/C is 87.6% and 92.7% and 96.8%. The viability, T/C (compound 0.1 µM) is 70.2% and 70.5% and 75.3%. Further, the viability, T/C (compound 0.316 µM) is 67% and 59.4% and 75.4%. Further, the viability, T/C (compound 1 µM) is 65.5% and 56.8% and 61.1%.

With `CCN(c1cc(-c2ccc(CN3CCOCC3)cc2)cc(C(=O)NCc2c(C)cc(C)[nH]c2=O)c1C)C1CCOCC1`, the 50% inhibitory concentration (IC50) is greater than 3000 nM. Also, under “compound 0.00949 µM”, the viability, T/C is 98.5% and 117% and 104%. Under “compound 0.03 µM”, the viability, T/C is 103% and 99.6% and 104%. The viability, T/C (compound 0.0949 µM) is 92.1% and 98.2% and 99.4%. The viability, T/C (compound 0.3 µM) is 111% and 101% and 107%. Moreover, the viability, T/C (compound 0.949 µM) is 110% (2×) and 106%. For the same compound, under “compound 3 µM”, the viability, T/C is 104% and 94.1% and 107%.

As to `CC[C@@]1(O)C(=O)OCc2c1cc1n(c2=O)Cc2cc3c(CN(C)C)c(O)ccc3nc2-1`, the IC50 is greater than 100 nM. The viability, T/C (compound 0.000316 µM) is 105% and 99.9% and 103%. Besides, under “compound 0.001 µM”, the viability, T/C is 110% and 104% and 107%. Also, the viability, T/C (compound 0.00316 µM) is 89.1% and 98% and 101%. Also, the viability, T/C (compound 0.01 µM) is 101% and 94% and 103%. Also, for the setting “compound 0.0316 µM”, the viability, T/C is 116% and 105% and 106%. Moreover, the viability, T/C (compound 0.1 µM) is 108% and 101% and 104%.

As for `CCc1c2c(nc3ccc(O)cc13)-c1cc3c(c(=O)n1C2)COC(=O)[C@]3(O)CC`, the 50% inhibitory concentration (IC50) is greater than 300 nM. Moreover, the viability, T/C (compound 0.000949 µM) is 89.6% and 96.8% and 99.8%. Also, the viability, T/C (compound 0.003 µM) is 98.3% (2×) and 108%. In addition, for the setting “compound 0.00949 µM”, the viability, T/C is 96.8% and 95.2% and 99.4%. In addition, under “compound 0.03 µM”, the viability, T/C was 96.7% and 109% (2×). Where the note is “compound 0.0949 µM”, the viability, T/C is 90.5% and 101% and 110%. In addition, the viability, T/C (compound 0.3 µM) is 96.5% and 83.3% and 95.6%.

`COc1cccc2c1C(=O)c1c(O)c3c(c(O)c1C2=O)CC(O)(C(=O)CO)CC3OC1CC(N)C(O)C(C)O1` (stereo not given): the IC50 was 792 nM and 736 nM and 1200 nM. Further, the viability, T/C (compound 0.0316 µM) is 95.5% and 104% and 102%. Also, the viability, T/C (compound 0.1 µM) was 97.6% and 102% and 108%. The viability, T/C (compound 0.316 µM) was 82.6% and 76.4% and 99.2%. For the same compound, for the setting “compound 1 µM”, the viability, T/C is 42.9% and 44.2% and 59%. The viability, T/C (compound 3.16 µM) was 0.87% and 1.36% and 2.64%. In addition, under “compound 10 µM”, the viability, T/C was 1.12% and 5.21% and 1.87%.

On to `Cn1ncnc1C1c2n[nH]c(=O)c3cc(F)cc(c23)NC1c1ccc(F)cc1` (stereo not given), for which the 50% inhibitory concentration (IC50) was greater than 100 nM. Besides, the viability, T/C (compound 0.000316 µM) was 120% and 100% and 104%. For the same compound, the viability, T/C (compound 0.001 µM) was 104% and 99.4% and 98.5%. Further, the viability, T/C (compound 0.00316 µM) is 114% and 102% and 99.6%. The viability, T/C (compound 0.01 µM) is 92.6% and 105% and 106%. Further, the viability, T/C (compound 0.0316 µM) is 94.1% and 106% and 103%. For the setting “compound 0.1 µM”, the viability, T/C is 114% and 102% and 104%.

As to `Nc1ncn(C2CC(O)C(CO)O2)c(=O)n1` (stereo not given), the IC50 is greater than 1000 nM. Moreover, the viability, T/C (compound 0.00316 µM) was 110% and 113% and 104%. Besides, the viability, T/C (compound 0.01 µM) is 96.1% and 116% and 107%. Also, for the setting “compound 0.0316 µM”, the viability, T/C was 93.2% and 102% and 110%. The viability, T/C (compound 0.1 µM) was 97.1% and 113% and 103%. For the same compound, the viability, T/C (compound 0.316 µM) was 105% and 124% and 93.8%. The viability, T/C (compound 1 µM) was 116% and 104% and 105%.

With `Nc1ncn(C2CC(O)C(CO)S2)c(=O)n1` (stereo not given), the IC50 was greater than 300 nM. For the same compound, the viability, T/C (compound 0.000949 µM) is 92.7% and 99.1% and 95.1%. For the same compound, the viability, T/C (compound 0.003 µM) is 107% and 97.7% and 97.9%. Besides, the viability, T/C (compound 0.00949 µM) was 109% (2×) and 117%. The viability, T/C (compound 0.03 µM) was 109% and 104% and 105%. Besides, the viability, T/C (compound 0.0949 µM) was 118% and 110% and 107%. Further, the viability, T/C (compound 0.3 µM) was 119% and 96.8% and 117%.

For the compound `O=C(C=Cn1cnc(-c2cc(C(F)(F)F)cc(C(F)(F)F)c2)n1)NNc1cnccn1`, the IC50 was 47.2 nM and 35.2 nM and 40.1 nM. For the same compound, under “compound 0.00949 µM”, the viability, T/C was 73.6% and 72.9% and 69.5%. Further, where the note is “compound 0.03 µM”, the viability, T/C was 63% and 56.7% and 62.2%. Besides, under “compound 0.0949 µM”, the viability, T/C is 29.8% and 8.08% and 13.8%. In addition, the viability, T/C (compound 0.3 µM) is 8.48% and 5.65% and 9.96%. Moreover, under “compound 0.949 µM”, the viability, T/C was 8.74% and 6.18% and 8.91%. For the same compound, the viability, T/C (compound 3 µM) is 6.48% and 6.56% and 8.45%.

A word on the viability, T/C: it is the ratio of treated to control. What is called IC50 is the concentration at which inhibition is half-maximal.
